In patent US7767854B2, “N-substituted phenylacetamide derivative and pharmaceutical composition containing the same” (Dainippon Sumitomo Pharma Co., Ltd., priority 2005, dated 2010):

test system: female CBA/JN mice; test: Skin sensitization test (Local Lymph Node Assay with BrdU); type: in vivo, mouse; details: 1 and 3% solutions in DMF on both auricles, 3 days
Protocol: Experiment 4: Skin Sensitization Test (Local Lymph Node Assay)
The purpose of the present experiment is to investigate if each administered compound of the invention can induce allergic contact dermatitis. In detail, the skin sensitization effect of the compounds of the invention was examined using BrdU (bromodeoxyuridine) by LLNA (Local Lymph Node Assay).
In more detail, the test was carried out according to the method by Suda, A. et al. (Local lymph node assay with non-radioisotope alternative endpoints. J. Toxicol. Sci., 27(3):205-218, 2002). Namely, the compounds of the invention were dissolved in DMF (N,N-dimethylformamide) to prepare 1 and 3% solutions, which were applied to both auricles of female CBA/JN mice aged 9 weeks for consecutive 3 days (1st day to 3rd day)(25 μl/one-side ear, once a day)
As positive control drugs, DNCB (dinitrochlorobenzene, a potently sensitizing drug) and HCA (α-hexylcinnamaldehyde, a weakly sensitizing drug) were used. After the final application was finished (on 3rd day), ALZET Osmotic Pump containing 100 μl of 200 mg/mL BrdU (releasing rate: 0.5 μl/hour) was implanted into the ventral skin under pentobarbital anesthesia, and BrdU was exposed sustainedly. On 9th day from starting day to apply the compounds of the invention, the animals were euthanized by cervical dislocation, and parotid lymph nodes of both their ears were taken out. The nodes were weighed and homogenized in PBS to prepare a single cell suspension which was measured by a blood test device: ADVIA (Bayer) to count the number of the cells. Next, the cells were immunofluorescently stained with FITC-labeled anti-BrdU antibody using a BrdU Flow Kit (BD Biosciences), which were measured and analyzed using a flow cytometer: FACS Calibur (Becton Dickinson) to give BrdU-positive cell percentage. And then, the BrdU-positive cell percentage was multiplied by the number of the node cells to give the number of the BrdU-positive cells. Additionally, on each parameter, the average value for the test compound group was divided by the average value for the reference (solvent) group to give a stimulation Index (SI). We judged that the compound had skin sensitization activity when the SI of BrdU-positive cell number was 2 or more, in principle.

Row | Compound | skin sensitization (SI of BrdU-positive cell number)
1 | CCCCC[C@H]1CC[C@@H](NC(=O)Cc2ccc(O)c(OC)c2)CC1 [Example 8] | weak skin sensitization
2 | CCCC=C1CCC(NC(=O)Cc2ccc(O)c(OC)c2)CC1 (stereo not drawn) [Example 10, N-(4-butylidenecyclohexyl)-2-(4-hydroxy-3-methoxyphenyl)acetamide] | weak skin sensitization
3 | COc1cc(CC(=O)N[C@H]2CC[C@H](CCC(C)C)CC2)ccc1O [Example 26, 2-(4-hydroxy-3-methoxyphenyl)-N-[trans-4-(3-methylbutyl)cyclohexyl]acetamide] | weak skin sensitization
4 | CCCCCO[C@H]1CC[C@H](NC(=O)Cc2ccc(O)c(OC)c2)CC1 [Example 36] | weak skin sensitization
5 | COc1cc(CC(=O)N[C@H]2CC[C@H](CC=C(C)C)CC2)ccc1O [Example 42, 2-(4-hydroxy-3-methoxyphenyl)-N-[trans-4-(3-methyl-2-butenyl)cyclohexyl]acetamide] | weak skin sensitization

test system: male Std: Wistar rats; test: Pain test by plantar thermal stimuli (plantar test); type: in vivo; details: Rattus norvegicus, 4 h, 50 μl of 0.03% (W/V) solution i.pl. into right hind-paw; 4 hours after administration; cut-off 25 seconds; read-out: % MPE (percent maximum possible effect, withdrawal latency)
Protocol: Experiment 1: Pain Test by Plantar Thermal Stimuli (Plantar Test)
In the present experiment, the analgesic effect of the compounds of the invention was evaluated by the measurements of withdrawal latency to noxious thermal stimuli, according to the methods of Hargreaves, et al., [Pain, 32, 77-88 (1988)] and Field, et al., [J. Pharmacol. Exp. Ther., 282, 1242-1246 (1997)].
In detail, the experiment was carried out using male Std: Wistar rats (4 rats/group; body weight, 170-220 g) and a plantar test device (Model 7370, Ugo Basile) with infrared beam as a heat source. The rat was put into an experimental cage that is an acrylic box whose bottom is made of glass and was habituated therein. Then, the infrared beam was radiated to the plantar surface of right hind-paw thereof through the floor glass, and the withdrawal latency was measured every 5 minutes, 3 times. The intension of the infrared beam was adjusted so that the pre-drug administration latency was about 10 seconds. The cut-off time was set at 25 seconds in order to prevent a paw burn. The average of the latencies was calculated, and then it was defined as the value of the pre-drug administration latency of the test compound.
Next day, 50 μl of each solution of the test compounds [the compounds of the invention, the compounds of the comparative Examples and capsaicin (Sigma, U.S.A.)] or 50 μl of vehicle solvent (reference) was given to a right hind-paw of the rat by intraplantar injection (i. pl.) using a micro-syringe. The test compound was dissolved in a saline solution containing 10% Tween 80 (Sigma, U.S.A) and 10% ethanol to give a 0.03% (W/V) solution. The saline solution containing 10% Tween 80 and 10% ethanol was used as reference. Four hours after i.pl. administration of each the test compound or the reference to the rats, the experiment mentioned above was carried out, and then the post-drug administration latency was measured. The analgesic effects thereof were calculated with the following formula, which was known as a percent maximum possible effect (% MPE). % MPE=[(the value of post-drug latency−the value of pre-drug latency)/(25*−the value of pre-drug latency)]×100 *: cut-off time

Row | Compound | change in vivo at 300 µg/mL [%]
6 | CCCCC[C@H]1CC[C@@H](NC(=O)Cc2ccc(O)c(OC)c2)CC1 [Example 8] | 88.4
7 | CCCC=C1CCC(NC(=O)Cc2ccc(O)c(OC)c2)CC1 (stereo not drawn) [Example 10, N-(4-butylidenecyclohexyl)-2-(4-hydroxy-3-methoxyphenyl)acetamide] | 89.4
8 | COc1cc(CC(=O)N[C@H]2CC[C@H](CCC(C)C)CC2)ccc1O [Example 26, 2-(4-hydroxy-3-methoxyphenyl)-N-[trans-4-(3-methylbutyl)cyclohexyl]acetamide] | 96.3
9 | CCCCCO[C@H]1CC[C@H](NC(=O)Cc2ccc(O)c(OC)c2)CC1 [Example 36] | 50.5
10 | COc1cc(CC(=O)N[C@H]2CC[C@H](CC=C(C)C)CC2)ccc1O [Example 42, 2-(4-hydroxy-3-methoxyphenyl)-N-[trans-4-(3-methyl-2-butenyl)cyclohexyl]acetamide] | 85
11 | C=C(C)/C=C/[C@H]1CC[C@H](NC(=O)Cc2ccc(O)c(OC)c2)CC1 [Example 72, 2-(4-hydroxy-3-methoxyphenyl)-N-{trans-4-[(E)-3-methyl-1,3-butadienyl]cyclohexyl}acetamide] | 75.4
12 | C/C=C\CC[C@H]1CC[C@H](NC(=O)Cc2ccc(O)c(OC)c2)CC1 [Example 73, 2-(4-hydroxy-3-methoxyphenyl)-N-{trans-4-[(Z)-3-pentenyl]cyclohexyl}acetamide] | 74.1
13 | C=CCC[C@H]1CC[C@H](NC(=O)Cc2ccc(O)c(OC)c2)CC1 [Example 74, N-[trans-4-(3-butenyl)cyclohexyl]-2-(4-hydroxy-3-methoxyphenyl)acetamide] | 57.1
14 | C/C=C/CC[C@H]1CC[C@H](NC(=O)Cc2ccc(O)c(OC)c2)CC1 [Example 75, 2-(4-hydroxy-3-methoxyphenyl)-N-{trans-4-[(E)-3-pentenyl]cyclohexyl}acetamide] | 74.4
15 | COc1cc(CC(=O)NC2CCC(=C3CCCCC3)CC2)ccc1O (stereo not drawn) [Example 76, N-(4-cyclohexylidenecyclohexyl)-2-(4-hydroxy-3-methoxyphenyl)acetamide] | 71
16 | CCC(CC)=C1CCC(NC(=O)Cc2ccc(O)c(OC)c2)CC1 (stereo not drawn) [Example 77] | 78.6
17 | CCCC(CCC)=C1CCC(NC(=O)Cc2ccc(O)c(OC)c2)CC1 (stereo not drawn) [Example 78] | 82.8
18 | COc1cc(CC(=O)NC2CCC(=C3CCC3)CC2)ccc1O (stereo not drawn) [Example 79] | 33.6
19 | COc1cc(CC(=O)NC2CCC(=C3CCCC3)CC2)ccc1O (stereo not drawn) [Example 80] | 37
20 | COc1cc(CC(=O)NC2CCC(=C3CCCCCC3)CC2)ccc1O (stereo not drawn) [Example 81] | 94.4
21 | COc1cc(CC(=O)NC2CCC(=C(C)C)CC2)ccc1O (stereo not drawn) [Example 82, 2-(4-hydroxy-3-methoxyphenyl)-N-(4-isopropylidenecyclohexyl)acetamide] | 68.4
22 | COc1cc(CC(=O)N[C@H]2CC[C@H](C3CCCCC3)CC2)ccc1O [Example 83, N-(trans-4-cyclohexylcyclohexyl)-2-(4-hydroxy-3-methoxyphenyl)acetamide] | 77.4
23 | CCC(CC)[C@H]1CC[C@H](NC(=O)Cc2ccc(O)c(OC)c2)CC1 [Example 84] | 76.9
24 | CCCC(CCC)[C@H]1CC[C@H](NC(=O)Cc2ccc(O)c(OC)c2)CC1 [Example 85] | 49.3

Row | Compound | change in vivo at 300 µg/mL [%]
25 | COc1cc(CC(=O)N[C@H]2CC[C@H](C3CCC3)CC2)ccc1O [Example 86] | 68.6
26 | COc1cc(CC(=O)N[C@H]2CC[C@H](C3CCCCCC3)CC2)ccc1O [Example 87] | 80.1
27 | CCC(CC)C1=CCC(NC(=O)Cc2ccc(O)c(OC)c2)CC1 (stereo not drawn) [Example 88, 2-(4-hydroxy-3-methoxyphenyl)-N-[4-(3-pentyl)-3-cyclohexenyl]acetamide] | 95.5
28 | CCCC(CCC)C1=CCC(NC(=O)Cc2ccc(O)c(OC)c2)CC1 (stereo not drawn) [Example 89, N-[4-(4-heptyl)-3-cyclohexenyl]-2-(4-hydroxy-3-methoxyphenyl)acetamide] | 100
29 | COc1cc(CC(=O)N[C@H]2CC[C@H](C=C3CCC3)CC2)ccc1O [Example 91, N-[trans-4-(cyclobutylidenemethyl)-cyclohexyl]-2-(4-hydroxy-3-methoxyphenyl)acetamide] | 74.2
30 | COc1cc(CC(=O)N[C@H]2CC[C@H](CC3CCC3)CC2)ccc1O [Example 93, N-[trans-4-(cyclobutylmethyl)cyclohexyl]-2-(4-hydroxy-3-methoxyphenyl)acetamide] | 69.7
31 | C/C=C\C[C@H]1CC[C@H](NC(=O)Cc2ccc(O)c(OC)c2)CC1 [Example 94, N-{trans-4-[(Z)-2-butenyl]cyclohexyl}-2-(4-hydroxy-3-methoxyphenyl)acetamide] | 69.1
32 | COc1cc(CC(=O)N[C@H]2CC[C@@H](C=C(C)C)CC2)ccc1O [Example 95, 2-(4-hydroxy-3-methoxyphenyl)-N-[cis-4-(2-methyl-1-propenyl)cyclohexyl]acetamide] | 88.8
33 | COc1cc(CC(=O)N[C@H]2CC[C@@H](CC(C)C)CC2)ccc1O [Example 96, 2-(4-hydroxy-3-methoxyphenyl)-N-[cis-4-(2-methylpropyl)cyclohexyl]acetamide] | 80.4
34 | C/C=C(\CC)[C@H]1CC[C@@H](NC(=O)Cc2ccc(O)c(OC)c2)CC1 [Example 97, N-{cis-4-[(E)-1-ethyl-1-propenyl]-cyclohexyl}-2-(4-hydroxy-3-methoxyphenyl)acetamide] | 63.8
35 | CCC(CC)[C@H]1CC[C@@H](NC(=O)Cc2ccc(O)c(OC)c2)CC1 [Example 98, 2-(4-hydroxy-3-methoxyphenyl)-N-[cis-4-(3-pentyl)cyclohexyl]acetamide] | 74.6
36 | COc1cc(CC(=O)N[C@H]2CC[C@H](CCCCF)CC2)ccc1O [Example 99, N-[trans-4-(4-fluorobutyl)cyclohexyl]-2-(4-hydroxy-3-methoxyphenyl)acetamide] | 55.8
37 | COc1cc(CC(=O)N[C@H]2CC[C@H](CC3CC3)CC2)ccc1O [Example 100, N-(trans-4-cyclopropylmethylcyclohexyl)-2-(4-hydroxy-3-methoxyphenyl)acetamide] | 44.5
38 | COc1cc(CC(=O)N[C@H]2CC[C@H](/C=C/CC(F)(F)F)CC2)ccc1O [Example 102] | 56.6
39 | COc1cc(CC(=O)N[C@H]2CC[C@H](/C=C/CCF)CC2)ccc1O [Example 103] | 36.7
40 | COc1cc(CC(=O)NC2CCC3(CCCCC3)CC2)ccc1O [Example 105, 2-(4-hydroxy-3-methoxyphenyl)-N-(spiro[5.5]undec-3-yl)acetamide] | 63.4
41 | CCC1(CC)CCC(NC(=O)Cc2ccc(O)c(OC)c2)CC1 [Example 106] | 51.5
42 | CCCCC1(CC)CCC(NC(=O)Cc2ccc(O)c(OC)c2)CC1 (stereo not drawn) [Example 107] | 85.2
